Data as given in paper PMC10610214 (Pharmaceuticals, 2023).

Assays:
AML-12 cells = experiment: Hepatotoxicity in AML-12 cells (MTT); assay type: cell-based; details: 10, 30 and 50 μM
Method: The hepatotoxicity of compound 4h in normal AML-12 hepatocytes and HepG2 liver cancer cells was examined by MTT method. AML-12 cells and HepG2 cells were seeded into 96-well plates at a density of 5.0 × 10^3 cells per well, respectively. After the cells were incubated overnight, the old medium was discarded. The cells were incubated for 48 h with fresh medium containing various concentrations of the test compound. After 48 h of incubation, 20 μL of MTT (5 mg/mL) was added to each well and incubate for an additional 4 h. Formazan was dissolved with DMSO (150 μL). […]

COX-2 = COX-2 expression in LPS-stimulated BV2 cells (Western blot); assay type: cell-based; details: 1, 2, 4 μM
Method: BV2 cells were seeded into a 6-well plate at a density of 3.0 × 10^5 cells per well. After incubation overnight, the old medium was discarded. Then, the cells were pretreated with various concentrations (1, 2, and 4 μM) of 4h for 1 h and then co-incubated with LPS (1 μg/mL) for 24 h. After incubation was completed, the cells were washed twice with PBS, and 300 μL of cell lysis buffer (RIRA lysis buffer, phosphatase inhibitor, protease inhibitor, and PMSF) was added to each well. The cells were then incubated on ice for 30 min and centrifuged at 12,000 rpm at 4 °C for 30 min to collect the supernatant. The protein content in the supernatant was detected using the BCA protein detection kit (Beyotime, Shanghai, China). Total proteins were separated by 10% SDS-PAGE and then transferred from the gel to a PVDF membrane (Sigma-Aldrich, Shanghai, China). The membranes were blocked in TBST solution containing 5% skimmed milk for 2 h. Next, the membranes were washed three times (TBST) and incubated with primary antibody dilution (Cell Signaling Technologies, Boston, MA, USA) overnight at 4 °C. Then, they were washed another three times (TBST), incubated with the secondary antibody at room temperature for 90 min, and then washed three times with TBST. The blots were visualized by a chemiluminescence imager (Tanon 5200, Shanghai, China).

[1] = system: scopolamine-induced AD mice; experiment: Morris water maze, scopolamine-induced AD mouse model; assay type: in vivo
Method: Mice were reared in a temperature and humidity controlled environment with free access to food and water, with self-adaptive rearing for 4 days.
According to behavioral experiments, 30 mice were randomly divided into 5 groups. […] On day 7, scopolamine hydrobromide was injected intraperitoneally into the of the mouse to establish an AD model. The control group were only injected normal saline. After 30 min, the bodyweight changes in mice during the administration period were recorded.
The MWM is a white circular pool (150 cm in diameter, 60 cm in height; no features on the inner surface) with a water height of 46 cm and a white platform (10 cm in diameter) submerged 1 cm below the water surface. White titanium dioxide (0.25 g/L) was added to make the water turbid to make the platform invisible, and the platform was fixed in the third quadrant of the circular pool (four quadrants in total). Training was performed by allowing mice to stay for 15 s after reaching the platform. If the mice successfully found the platform within 60 s, they were allowed to stay on the platform for 15 s; otherwise, they were brought to the platform and stayed for 15 s. The training was performed four times a day for a total of 4 days of training. Except for the control group, animals were intraperitoneally injected with scopolamine 90 min before the test to induce cognitive deficits mimicking. On day 5, a probe trial was conducted with the platform removed. Mice were placed in the quadrant opposite the target for 60 s, and their swim path was recorded to evaluate memory retention. Performance measures included latency to reach the platform location and time spent in each quadrant.

P-gp (MDR1) = experiment: in vitro; assay type: in vitro ADME; details: dog, MDCK-MDR1, MDCKII-MDR1
Method: (§1) Specifically, MDCKII-MDR1 cells (1 × 10^5 cell/cm^2) were seeded on polyester 12-well Transwell inserts (pore size: […], diameter: 12 mm, apical volume: 0.5 mL, basolateral: volume 1.5 mL) and cultured for 5–7 days to reach full differentiation as per TEER readings > 250 Ω·cm. […] After an incubation time of 2 h, samples were removed from the apical and basolateral side of the monolayer and were stored at −80 °C until further analysis.
(§2) The Papp was calculated according to the following equation (units of cm/s):(1) Papp=Va/area×time×Drugacceptor/Druginitial where “Va” is the volume in the acceptor well, “time” is the total transport time, “area” is the surface area of the membrane, “[Drug]initial” is the initial drug concentration in the AP or BL chamber, and “[Drug]acceptor” is the concentration of the drug in the acceptor chamber.
(§3) The ER was calculated using the following equation:ER = Papp, BL-AP/Papp, AP-BL(2) where “Papp, BL-AP” is the apparent permeability of basal-to-apical transport, and “Papp, AP-BL” is the apparent permeability of apical-to-basal transport.

MDCKII-MDR1 cells = experiment: in vitro; assay type: in vitro ADME; details: efflux ratio
Method: as §1, §2, §3

Aβ1-42 = Aβ1-42 (Homo sapiens, UniProt P05067); experiment: Self-induced Aβ1-42 aggregation, thioflavin T fluorescence; assay type: biochemical; parameters: final concentrations of 20 μM of Aβ1-42 and 100 μM of test compound; purchased Beyotime Institute of Biotechnology; details: 100 μM inhibitor; ThT; 48 h; read-out: Inhibition of Self-Induced Aβ Aggregation (%)
Method: The inhibitory effect of compounds on Aβ42 was determined by Thioflavin T (ThT) fluorescence assay. In short, the dilution of Aβ42 solution (Beyotime Biotechnology, Hang Zhou, China) and test compounds was carried out with phosphate buffer (50 mM, pH 7.4) to obtain final concentrations of 20 μM of Aβ1-42 and 100 μM of test compound, such as curcumin (20 μM). The mixture was incubated in 96-well plates at room temperature for 48 h in the dark. When the incubation was complete, the samples were diluted to 200 µL (final volume) with glycine–NaOH buffer (50 mM, pH 8.0) containing 5 μM ThT.

[2] = LD50 determination in mice (Bliss method); assay type: in vivo, C57BL mice; details: male, C57BL, mouse, in vivo, po, intragastric administration 7 days, Bliss method, read-out: LD50 (95% confidence limit)
Method: Male C57BL mice (18–23 g; 8 weeks old) were purchased from the Experimental Center of Anhui University of Traditional Chinese Medicine. Mice were reared in a temperature and humidity controlled environment with free access to food and water, with self-adaptive rearing for 4 days.
Thirty mice were randomly divided into five groups, and the death of each group was counted after 7 days of intragastric administration (100, 80, 64, 51.2, 40.96 mg/kg). The Bliss method was used to calculate the LD50 and 95% confidence limit.

[3] = Morris water maze probe trial, day 5

Aβ1-42, sequence (P05067 672-713 limits assumed): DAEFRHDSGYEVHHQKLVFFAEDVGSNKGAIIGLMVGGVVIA

In the case of O=C1c2cc(NS(=O)(=O)c3ccccc3F)ccc2-n2c1nc1ccccc1c2=O [4h], the “Hepatotoxicity in AML-12 cells” value (AML-12 cells) is reported as “had no toxicity”, the COX-2 expression (COX-2) is reported as “significantly decreased the expression of COX-2 and iNOS” and the Bodyweight of mice ([1]; 10 and 30 mg/kg, gavage, 7 days) is reported as “did not cause any abnormal fluctuations in the bodyweight of mice”. For the same compound, the “Dwell time in the target quadrant” value [1, 3] was “markedly higher in the 30 mg/kg dose group than those in the model and 10 mg/kg dose groups”, the “Number of virtual platform crossings” value [1, 3] was “markedly higher in the 30 mg/kg dose group than those in the model and 10 mg/kg dose groups” and the Escape latency ([1]; Morris water maze, 10 and 30 mg/kg gavage, training days) was “decreased in a dose-dependent manner”. The Papp A→B at 2 h, 75 μM (P-gp (MDR1); apical-to-basal, 2 h) was 18.1 ± 2.7 ×10⁻⁶ cm/s, the Papp B→A at 2 h, 75 μM (P-gp (MDR1); basal-to-apical, 2 h) was 17.4 ± 2.2 ×10⁻⁶ cm/s and the efflux ratio at 2 h, 75 μM (P-gp (MDR1); efflux ratio, read-out: ER Papp BL/Papp AP) was 0.96. The “ER Papp BL/Papp AP” value (MDCKII-MDR1 cells) was “less than two”, the inhibition at 100 µM (Aβ1-42) was 63.2 ± 2.33% and the LD50 at 7 days [2] was 84.8 mg/kg.
